According to paper PMC12030033, “Design and Synthesis of Bis-Chalcones as Curcumin Simplified Analogs and Assessment of Their Antiproliferative Activities Against Human Lung Cancer Cells and Trypanosoma cruzi Amastigotes” (Pharmaceuticals, 2025):
Like-named read-outs stand apart in the source and are kept apart here.

What was measured:
[1] = tested on: T. cruzi amastigotes (Tulahuen C2C4-LacZ); experiment: Trypanocidal activity against intracellular amastigotes (CPRG, beta-galactosidase); assay type: cell-based, Trypanosoma cruzi; conditions: for Selective Index: LLC-MK2 IC50 vs T. cruzi amastigote IC50; for IC50: 120 h, in LLC-MK2 host cells
Experimental: The antiparasitic activity assays used the Tulahuen C2C4-LacZ strain of the Trypanosoma cruzi parasite, being evaluated in the amastigote forms. […] Trypomastigote forms were collected from the culture supernatant between the 5th and 10th day after infection and separated from non-adherent cells by differential centrifugation. Epimastigote evolutionary form parasites were cultivated in LIT medium (Liver Infusion Tryptose), supplemented with hemin (25 mg/L) + 10% FBS, and incubated at 28 °C, performing successive passages every 6–7 days.
Non-internalized parasites were removed by three successive washes with PBS, followed by treatment with increasing concentrations of the hybrids (0.64–100 µM) in triplicates, pre-diluted in DMEM + 2% FBS. Untreated vehicle (0.2% v/v DMSO) and blank (no added parasites) controls were included in the experiment. Increasing concentrations of Benznidazole were used as the positive control. After incubation for 5 days (120 h), 30 µL of 0.5 mM chlorophenol red substrate β-galactopyranoside (CPRG) in PBS was added with 0.9% v/v of Igepal CA-630.

[2] = Cytotoxicity (MTT) on LLC-MK2 host cells; assay type: cell-based; conditions: rhesus monkey
From the text: (§1) Mammalian cells were used to evaluate the cytotoxicity of the tested compounds. […] Cells were dissociated from the monolayer by treatment with a solution containing 0.25% w/v trypsin and 0.04% EDTA.

A549 cells [3] = experiment: Antiproliferative activity (MTT) against A549 tumor cell line; assay type: cell-based, human; conditions: for IC50: read-out: A549 IC50; for Selective Index SI A549: PBMC LD50 vs A549 IC50
Experimental: (§2) Cells were treated with increasing concentrations of the hybrids in triplicates, pre-diluted in DMEM + 2% FBS, and incubated for 120 h. The toxic effect of the molecules was also evaluated on human lung cancer cell lines (A549 and H460), as well as on PBMC. […] In all experiments, untreated controls, vehicle (0.2% v/v DMSO), and blanks (no added cells) were included. […] Then, 20 µL of 3.0 mM MTT saline was added and incubated for another 1.5 h. The supernatant was removed, and the MTT formazan crystals were dissolved by adding 120 µL/well of DMSO. After incubation for 1.5 h to dissolve the MTT crystals away from light and at 37 °C, the absorbance was measured at λ = 570 nm using a plate reader.

H460 cells = experiment: Antiproliferative activity (MTT) against H460 tumor cell line; assay type: cell-based, human; conditions: for IC50: read-out: H460 IC50; for Selective Index SI H460: PBMC LD50 vs H460 IC50; for Fold increase in potency compared with analog 7, H460: IC50 ratio vs 7
Experimental: as §2

[4] = Stability in PBS by HPLC-DAD; assay type: physicochemical; conditions: PBS pH 7.4, 37 °C; for Chemical stability in PBS: 24 h incubation
Experimental: The analytical conditions were as follows: Column Restek, Allure Organic Acid C18, 150 mm × 4.6 mm × 5 µm (Bellefonte, PA, USA); mobile phase, 40% water with 0.1% formic acid, 60% acetonitrile with 0.1% formic acid, 1.0 mL/min, isocratic elution; injection volume, 5 µL; detectors, PDA (200–800 nm). […] After incubation, 100 µL of reaction mixtures were added to 900 µL of HPLC mobile phase and injected.

[5] = tested on: peripheral blood mononuclear cells (PBMC); conditions: human, 72 h
Experimental: as §2

[6] = tested on: T. cruzi epimastigotes (Y strain); set-up: method as in PMID 27658305; conditions: read-out: IC50 against epimastigotes (Y strain); cited from earlier work
A549 cells [7] = experiment: Cell cycle analysis by PI flow cytometry; assay type: cell-based, human; conditions: A549, 72 h treatment at IC50; for Cells in G2-M phase: control approximately 20%
Experimental: The cell cycle phase was determined using a PI solution, according to a method described elsewhere. […] Cell cycle determination was performed on a FACScalibur flow cytometer (BD Biosciences, San Diego, CA, USA). Post-analysis of the cell cycle assay was performed using Summit software (version 4.3, Dako Colorado, Fort Collins, CO, USA).

[8] = tested on: T. cruzi (Y strain) amastigotes; set-up: method as in PMID 27658305; conditions: cited from earlier work
[9] = tested on: peripheral blood mononuclear cells (PBMC); experiment: Cytotoxicity (MTT) on peripheral blood mononuclear cells; conditions: for PBMC LD50: 72 h, MTT
Experimental: as §2

A549 cells [10] = experiment: Cell death analysis by Annexin V/PI flow cytometry; assay type: cell-based, human; conditions: A549, 48 h at IC50; control 2.38%
Experimental: Cell death analysis was performed by using an Annexin V/PI double staining kit (PharMingen, San Diego, CA, USA) as previously described. For the assay, the cells were plated at a density of 1 × 10^6 cells/well in six-well plates, 2 mL/well. […] After incubating for 15 min at room temperature in the dark, 400 µL of binding buffer was added. The two-color flow cytometry analysis was performed on a FACSCalibur device (Becton Dickinson, Franklin Lakes, NJ, USA). Post-analysis was performed in Summit software (version 4.3, Dako Colorado, Fort Collins, CO, USA).

LLC-MK2 (host cells) = experiment: Cytotoxicity (MTT) on LLC-MK2 host cells; assay type: cell-based; conditions: 120 h, MTT
From the text: as §1

[11] = Homo sapiens, NCI-H460, 72 h, MTT

| Molecule | Selective Index [1] | IC50 ([1]; Trypanosoma cruzi, TULAHUEN) | IC50 at 120 h [2] | PBMC LD50 [5] | IC50 (A549 cells [3]; Homo sapiens, A549, 72 h, MTT) | Selective Index SI A549 (A549 cells [3]) | IC50 (H460 cells; [11]) | Selective Index SI H460 (H460 cells) | also measured |
| --- | --- | --- | --- | --- | --- | --- | --- | --- | --- |
| O=C(Cn1ccnc1[N+](=O)[O-])NCc1ccccc1 [Benznidazole, reference compound] | > 133 | 1.5 ± 0.33 µM | > 200 µM |  |  |  |  |  |  |
| N.N.[Cl][Pt][Cl] [Cisplatin, reference compound] |  |  |  |  |  |  |  |  | IC50 (A549 cells [3]; 72 h, MTT): 6.05 ± 0.58 µM; IC50 (H460 cells; 72 h, MTT): 2.96 ± 0.44 µM |
| COc1cc(/C=C/C(=O)CC(=O)/C=C/c2ccc(O)c(OC)c2)ccc1O [Compound 1, (1E,6E)-1,7-Bis(4-hydroxy-3-methoxyphenyl)hepta-1,6-dien-3,5-dione, reference compound] |  | 17.8 ± 6.88 µM | 25.7 ± 6.05 µM | 146.5 ± 12.08 µM |  |  |  |  | Fraction decomposed in PBS [4]: approximately 70%; IC50 [6]: 10.1 µM; IC50 (A549 cells [3]; Homo sapiens, A549, 72 h): 56.5 ± 3.75 µM; Cells in G2-M phase (A549 cells [7]): 80%; Amastigote release from infected mouse macrophages [8]: inhibited amastigote release; IC50 (H460 cells; Homo sapiens, NCI-H460, 72 h): 37.9 ± 8.81 µM |
| O=C(/C=C/c1ccc(O)cc1)CC(=O)/C=C/c1ccc(O)cc1 [Compound 3, (1E,6E)-1,7-Bis(4-hydroxyphenyl)hepta-1,6-diene-3,5-dione, reference compound] | 1.11 | 17.6 ± 0.26 µM | 19.7 ± 0.87 µM | 134.1 ± 13.30 µM | 46.5 ± 3.45 µM | 2.88 | 27.1 ± 4.35 µM |  |  |
| COc1cc(/C=C/C(=O)/C=C/c2ccc(O)c(OC)c2)ccc1O [Compound 4, (1E,4E)-1,5-Bis(4-hydroxy-3-methoxyphenyl)penta-1,4-dien-3-one] |  | 3.92 ± 0.33 µM | < 6.4 µM |  |  |  |  | > 19.60 | Chemical stability in PBS [4]: remained untouched; PBMC LD50 [9]: >200 µM; Toxic effects against peripheral blood mononuclear cells ([9]; higher concentration tested): did not present toxic effects; IC50 (A549 cells [3]; Homo sapiens, A549, 72 h): 18.1 ± 4.72 µM; IC50 (H460 cells; Homo sapiens, NCI-H460, 72 h): 10.2 ± 3.76 µM |
| COc1cc(/C=C/C(=O)c2ccc(O)c(OC)c2)ccc1O [Compound 5, (E)-1,3-Bis(4-hydroxy-3-methoxyphenyl)prop-2-en-1-one] | 0.55 | 15.6 ± 4.08 µM |  | 119.1 ± 16.35 µM | 58 ± 6.75 µM | 2.05 | 1.74 ± 0.28 µM | 68.44 | IC50 at 120 h ([2]; 120 h, MTT, read-out: LLC-MK2 (Host Cells) 120 h IC50): 8.72 ± 2.42 µM |
| COc1cc(/C=C2\CC/C(=C\c3ccc(O)c(OC)c3)C2=O)ccc1O [Compound 6, 2,5-Bis((E)-4-hydroxy-3-methoxybenzylidene)cyclopentan-1-one] |  | 8.35 ± 2.35 µM | < 6.4 µM | 141.1 ± 18.53 µM | 71.3 ± 1.53 µM | 1.97 | 36.1 ± 7.14 µM | 3.90 |  |
| COc1cc(/C=C2\CCC/C(=C\c3ccc(O)c(OC)c3)C2=O)ccc1O [Compound 7, 2,6-Bis((E)-4-hydroxy-3-methoxybenzylidene)cyclohexan-1-one] |  | 4.91 ± 0.4 µM | < 6.4 µM | >200 µM | 76.2 ± 9.49 µM |  | 42.6 ± 3.94 µM |  |  |
| COc1cc(/C=C2\COC/C(=C\c3ccc(O)c(OC)c3)C2=O)ccc1O [Compound 8, (3E,5E)-3,5-Bis(4-hydroxy-3-methoxybenzylidene)tetrahydro-4H-pyran-4-one] | 1.60 | 12.8 ± 5.17 µM | 20.6 ± 4.65 µM | 131.8 ± 14.52 µM | 8.1 ± 1.27 µM | 16.27 | 1.46 ± 0.28 µM |  | Chemical stability in PBS [4]: remained untouched; Fold increase in potency compared with parent derivative 7, A549 (A549 cells [3]; IC50 ratio vs 7): ~10 fold; Fold increase in potency compared with analog 7, H460 (H460 cells): ~30 fold |
| COc1cc(/C=C2\CN(C)C/C(=C\c3ccc(O)c(OC)c3)C2=O)ccc1O [Compound 9, (3E,5E)-3,5-Bis(4-hydroxy-3-methoxybenzylidene)-1-methylpiperidin-4-one] | 2.95 | 9.6 ± 1.61 µM | 28.4 ± 3.8 µM | 73.25 ± 5.87 µM | 61.1 ± 6.2 µM | 1.19 | 9.89 ± 3.03 µM | 7.40 | Fold increase in potency compared with analog 7, H460 (H460 cells): 4.3 fold |
| COc1cc(/C=C2\CSC/C(=C\c3ccc(O)c(OC)c3)C2=O)ccc1O [Compound 10, (3Z,5Z)-3,5-Bis(4-hydroxy-3-methoxybenzylidene)dihydro-2H-thiopyran-4(3H)-one] | 2.20 | 5.87 ± 2.89 µM | 13 ± 2.36 µM | 186.4 ± 35.15 µM | 37 ± 8.28 µM | 5.04 | 12.8 ± 3.94 µM | 14.56 |  |
| COc1cc(/C=C2\C[S+]([O-])C/C(=C\c3ccc(O)c(OC)c3)C2=O)ccc1O (stereo not drawn) [Compound 11, (3Z,5Z)-3,5-Bis(4-hydroxy-3-methoxybenzylidene)dihydro-2H-thiopyran-4(3H)-one 1-oxide] | 1.70 | 16.7 ± 4.67 µM | 28.5 ± 5.17 µM | >200 µM | 7.74 ± 1.65 µM |  | 1.02 ± 0.29 µM | > 196.07 |  |
| COc1cc(/C=C2\CS(=O)(=O)C/C(=C\c3ccc(O)c(OC)c3)C2=O)ccc1O [Compound 12, (3Z,5Z)-3,5-Bis(4-hydroxy-3-methoxybenzylidene)dihydro-2H-thiopyran-4(3H)-one 1,1-dioxide] | 1.56 | 7.33 ± 0.43 µM | 11.5 ± 3.71 µM | 173.0 ± 37.4 µM | 5.89 ± 2.81 µM | 29.37 | 0.27 ± 0.2 µM | 640.74 | Double-positive cells for annexin and PI (late apoptosis) (A549 cells [10]): 14.98%; Cells in sub-G0 phase (A549 cells [7]): 30%; Cells in G2-M phase (A549 cells [7]): 60% |
| (1E,6E)-1-(4-Hydroxy-3-methoxyphenyl)-7-(4-hydroxyphenyl)hepta-1,6-dien-3,5-dione [Compound 2, reference compound] | 0.72 |  |  |  |  | 1.96 |  | 5.76 | IC50 [1]: 31.3 ± 0.77 µM; PBMC LD50 [9]: 144.3 ± 12.30 µM; IC50 (A549 cells [3]; 72 h, MTT): 73.3 ± 6.98 µM; IC50 (LLC-MK2 (host cells)): 22.7 ± 3.71 µM; IC50 (H460 cells; 72 h, MTT): 25.1 ± 5.55 µM |
